How the values were obtained:
MAP1LC3B = MAP1LC3B expression in excised D20 xenograft tumors (qRT-PCR, immunohistochemistry); format: in vivo, SCID mice; conditions: 5 mg/kg
Protocol: Quantitative RT-PCR and ChIP assays were conducted as previously described (Lee et al. (2010) Mol Cell 39, 71-85). Briefly, total RNA was isolated from either the tumor cells or from xenografts using Trizol (Invitrogen) and reverse transcription was performed from 2 μg of total RNA using the Superscript III cDNA synthesis system (Invitrogen). The abundance of mRNA was detected by an ABI VIIA7 system with SYBR Green Master Mix (Life Technologies). Primer pairs were designed to amplify 90-150 bp mRNA specific fragments and were confirmed as unique products by melting curve analysis. The quantity of mRNA was calculated using the ΔΔCt method and normalized to HPRT. All reactions were performed in triplicates.
Groups of 8 SCID mice per treatment group were used for xenograft studies to ensure adequate power to detect biological differences. All experiments were approved by the QIMR Berghofer Medical Research Institute Animal Ethics Committee. […] Tumor volumes (width2×length/2) were measured using a digital calliper, and presented as mean±SD. […]
Tumor sections were fixed in 4% paraformaldehyde. […] Aperio ImageScope software was used for imaging and quantitation of 5 non-overlapping tumor regions and evaluating the number of positive pixels per unit area in each region. Empty areas were manually excluded from quantification.
Quantitative RT-PCR was performed as described above.

[1] = test system: PD-L1 and PD-1 in CD8+ T cells; test: Flow cytometry analysis of tumor infiltrating lymphocytes from AT3 tumors; format: in vivo, C57BL/6 mice; conditions: TILs from AT3 tumors, UNC0642 25 mg/kg every 2 days for 14 days, FIG. 18
Text: C57BL/6 mice were purchased from the ARC Animal Resources Centre and used between the ages of 6 and 16 weeks. Groups of 3 to 8 mice per experiment were used for experimental assays, to ensure adequate power to detect biological differences. All experiments were approved by the QIMR Berghofer Medical Research Institute Animal Ethics Committee.
The C57BL/6 AT3 mammary adenocarcinoma (obtained from Dr. Trina Stewart in 2009, Peter MacCallum Cancer Centre, Melbourne, Australia) were maintained as previously described (Casciello et al PNAS 2017). The AT3 cell line was tested negative for mycoplasma. For in vivo experiments, 1×10^5 cells were subcutaneously injected into mice in a 100 μL volume.
AT3 tumor growth was measured using a digital caliper, and tumor volumes were presented as mean±SEM. For flow cytometry analyses of intratumor immune cells, mice bearing established AT3 tumor (days 14-19) were treated with the indicated antibodies or reagents and immune cells were isolated 48 to 72 hours post treatment.
Tumors tissues were harvested from mice that had been treated with mAb or otherwise and processed for flow cytometry analysis. […]

For `COc1cc2c(NC3CCN(C(C)C)CC3)nc(N3CCC(F)(F)CC3)nc2cc1OCCCN1CCCC1` [UNC0642], the “expression of the MAP1LC3B gene in tumors (quantitative real time PCR)” value (MAP1LC3B; compared to the vehicle treated group, P<0.01, FIG. 10C) was “statistically significant increase”, the “level of MAP1LC3B in the excised tumors (immunohistochemical analysis)” value (MAP1LC3B; compared to vehicle, FIG. 10D) was “significantly increased” and the “PD-L1 and PD-1 in CD8+ T cells” value [1] was “down-regulation”.
